Entries after “also recorded” stand apart in the source; their conditions may differ.
Columns and labels:
[1] = tested on: outer hair cells (OHCs), inner hair cells (IHCs), and spiral ganglion neurons (SGNs); test: Cochlear histology after noise exposure: counting of IHCs, OHCs and SGNs, cytocochleograms; assay type: in vivo, C57BL/6J mice; conditions: for number (density) of SGNs, control vs drug-treated mice: apex, middle and base regions, male mice at 3 months, drug after noise, FIG. 6B (trimethadione), FIG. 7 (ethosuximide); for gross morphological changes in mid-modiolar sections, control vs drug-treated mice: drug after noise exposure
Description: The methods for fixing, processing and analyzing the mouse cochlea have been described in detail elsewhere (Ohlemiller et al., 2000; Ou et al., 2000). Briefly, mice were perfused transcardially with cold 2% paraformaldehyde and 2% glutaraldehyde in 0.1 M phosphate buffer. Both cochleae were isolated, the stapes removed, and immersed in the same fixative. Complete exposure of the cochlea to the fixative was ensured by making a small hole at the apex of the cochlear capsule, gently circulating the fixative over the cochlea using a transfer pipet. After decalcification in sodium EDTA, the cochleae were post-fixed in buffered 1% osmium tetroxide, dehydrated in an ascending acetone series, and embedded in Epon. For SGN counting, mid-modiolar sections (4 μm) were cut and about fifty sections were collected for each cochlea. The number of SGN nuclei at the apex, middle, and base was counted every fifth section (total 10 sections per one cochlea) under a 200× visual field using a computerized planimetry program of Image Pro Plus (Media Cybernetics). Because all sections were cut in a similar orientation, it was possible to evaluate comparisons between two groups by Mann-Whitney tests. For hair cell counting, cochleae were dissected into roughly half-turn segments. These half-turn segments were examined in mineral oil under Nomarski optics, using a calibrated ocular. Three separate inner hair cell (IHC) and outer hair cell (OHC) counts were obtained from non-overlapping 100 μm segments. Cytocochleogrames were prepared for one pair of mice with the best prophylactic function of trimethadione. The percentages of missing IHCs and OHCs were determined by dividing the number of missing hair cells by the total number of hair cells (i.e. present plus absent) in the organ of Corti.

[2] = tested on: noise-induced hearing loss (NIHL); test: Therapeutic function on noise-induced hearing loss: ABR thresholds, drug in drinking water right after noise exposure
[3] = stated as reason for selecting TMO; cited from earlier work
[4] = tested on: noise-induced hearing loss (NIHL); test: Prophylactic function on noise-induced hearing loss: ABR thresholds, drug in drinking water before noise exposure; conditions: for ABR threshold shift prevented, PTS: Drug-Noise-2w; for ABR threshold shift prevented, PTS / ABR threshold shift prevented, TTS: P<0.01; for ABR threshold shift prevented, TTS: Drug-Noise-24h
[5] = both male and female mice, 3 months old, drug in drinking water two weeks before noise, one-way ANOVA p<0.05, FIG. 5
[6] = female mice, across five tested frequencies, FIG. 5B
[7] = male mice, five tested frequencies from 5 to 40K, FIG. 5A

## CN1C(=O)OC(C)(C)C1=O [trimethadione]
[1]; apex region (0 to 8 kHz), single treated mouse of the pair, control 0.3%
  loss of IHCs: ~1.9%
[1]; apex region (0 to 8 kHz), single treated mouse of the pair, control 4.6%
  loss of OHCs: ~3.5%
[1]
  number (density) of SGNs, control vs drug-treated mice: no difference; also recorded: not significantly different
  gross morphological changes in mid-modiolar sections, control vs drug-treated mice: No obvious gross morphological changes
[1]; base region (32 kHz to 64 kHz), single treated mouse of the pair, control 22.2%, FIG. 8
  missing IHCs: about 1.8%
[1]; base region (32 kHz to 64 kHz), single treated mouse of the pair, control 74.4%, FIG. 8
  missing OHCs: ~68.8%
[1]; groups testing the prophylactic function
  morphological differences among groups: no obvious morphological differences
[1]; hook, low base, upper base and apex of cochlea, 3-months-old male mice (n=3), FIG. 6A
  IHC numbers, control vs drug-treated mice: no significant difference
[1]; hook, low base, upper base and apex of cochlea, 3-months-old male mice (n=3), Noise-Only-2w vs Noise-Drug-2w, FIG. 6A
  OHC numbers, control vs drug-treated mice: trend for the loss of more outer hair cells; also recorded: no significant difference
[2]; female mice (n=4), 24 h after noise, drug right after noise, FIG. 3B
  ABR threshold shift, TTS, vs control: no significant difference
[2]; female mice (n=4), two weeks after noise, drug right after noise, FIG. 3B
  ABR threshold shift, PTS, vs control: no statistical difference
[2]; male mice (n=3), 3 months old, drug in drinking water right after noise, one-way ANOVA p<0.05, FIG. 3A
  protection from NIHL, TTS: significant protection
[2]; male mice (n=3), two weeks after noise, drug right after noise, P<0.01
  ABR threshold shift, PTS, vs control: significantly less; also recorded: significant protection
[2]; male mice, 24 h after noise, drug in drinking water right after noise, across all five frequencies, P<0.05, FIG. 3A
  less ABR threshold shift than controls, TTS: about 10 dB
[2]; male or female mice, 3 months old, FIGS. 3A and 3B
  pre-exposure ABR thresholds (Pre-Noise-Only vs Pre-Noise-Drug): no significant difference
[3]
  water solubility: water soluble
[4]; 24 hours after noise (wideband, 110 dB, 30 min), TMO 200 mg/kg/day in drinking water three weeks before noise, all seven frequencies, FIG. 1B
  temporary threshold shift (TTS) vs control: significantly lower
[4]; 14 days after noise (wideband, 110 dB, 30 min), TMO 200 mg/kg/day in drinking water three weeks before noise, all seven frequencies, FIG. 1C, listed as TMO
  permanent threshold shift (PTS) vs control: significantly lower
[4]; TMO 200 mg/kg body weight/day in drinking water, one week after TMO treatment, n=5, 8 month-old mice, FIG. 1A
  ABR threshold before the noise exposure vs control: no difference
[4]; apex region (0 to 8 kHz), single treated mouse of the pair, control about 25 dB
  ABR threshold shift at the apex region: no shift
[4]; [5]
  protection from NIHL, PTS: significant protection
  protection from NIHL, TTS: significant protection
[4]; both male and female mice, prophylactic treatment
  ABR threshold shift after the noise exposure: dramatically reduced
[4]; [6]
  ABR threshold shift prevented, PTS: ~7.0 dB
  ABR threshold shift prevented, TTS: about 5.0 dB
[4]; [7]
  ABR threshold shift prevented, PTS: ~9.7 dB
  ABR threshold shift prevented, TTS: about 4.3 dB
[4]; single treated mouse (male, 3 months) of a selected pair, drug two weeks before noise, control mouse about 35 dB, FIG. 8
  permanent ABR threshold shift among five frequencies tested: 11 dB
[4]; single treated mouse of the pair, same value in the control mouse
  ABR threshold at 40 kHz before the noise exposure: 28 dB

## CCC1(C)CC(=O)NC1=O (stereo not drawn) [ethosuximide]
[1]
  number (density) of SGNs, control vs drug-treated mice: no difference; also recorded: not significantly different
  gross morphological changes in mid-modiolar sections, control vs drug-treated mice: No obvious gross morphological changes
[2]; 24 hours after noise (wideband, 110 dB, 30 min), ethosuximide 400 mg/kg/day in drinking water starting immediately after noise, FIG. 2B
  temporary threshold shift (TTS) vs control: significantly lower
[2]; 21 days after noise, ethosuximide 400 mg/kg/day in drinking water for three weeks starting immediately after noise, FIG. 2C
  permanent threshold shift (PTS) vs control: significantly lower
[2]; ethosuximide group vs control, n=5, 2 month-old mice, FIG. 2A
  ABR threshold before the noise exposure vs control: no difference
[2]; male mice (n=5), 3 months old, ethosuximide in drinking water right after noise, P<0.01, FIG. 4
  ABR threshold shift, PTS, vs control: less ABR threshold shift; also recorded: significant protection
[2]; male mice (n=5), 3 months old, ethosuximide in drinking water right after noise, P<0.05, FIG. 4
  ABR threshold shift, TTS, vs control: less ABR threshold shift; also recorded: significant protection

Source: patent US20070078177A1, “METHODS AND COMPOSITIONS FOR TREATING NON AGE RELATED HEARING IMPAIRMENT IN A SUBJECT” (WASHINGTON UNIVERSITY IN ST. LOUIS, priority 2005, published 2007)
